Experimental data taken from patent publication EP4491625A1, “BENZO BICYCLIC COMPOUND, AND PREPARATION METHOD AND APPLICATION THEREOF” (Guangzhou Unirise Pharmaceutical Co., Ltd., priority 2022, dated 2023).
Structures can show the parent of a compound that is named as a salt. One block for each compound: values may come before it.

Experiments:
GLP-1 receptor = target: T1, GLP-1 receptor (Homo sapiens, UniProt P43220); experiment: cAMP detection assay of agonistic effect in HEK293 cells with high expression of hGLP-1R; assay type: cell-based; details: agonistic effect, cAMP, HEK293 cells with high expression of hGLP-1R; read-out: EC50
T1 construct: host or cells: HEK293
T1 sequence (P43220 24-463): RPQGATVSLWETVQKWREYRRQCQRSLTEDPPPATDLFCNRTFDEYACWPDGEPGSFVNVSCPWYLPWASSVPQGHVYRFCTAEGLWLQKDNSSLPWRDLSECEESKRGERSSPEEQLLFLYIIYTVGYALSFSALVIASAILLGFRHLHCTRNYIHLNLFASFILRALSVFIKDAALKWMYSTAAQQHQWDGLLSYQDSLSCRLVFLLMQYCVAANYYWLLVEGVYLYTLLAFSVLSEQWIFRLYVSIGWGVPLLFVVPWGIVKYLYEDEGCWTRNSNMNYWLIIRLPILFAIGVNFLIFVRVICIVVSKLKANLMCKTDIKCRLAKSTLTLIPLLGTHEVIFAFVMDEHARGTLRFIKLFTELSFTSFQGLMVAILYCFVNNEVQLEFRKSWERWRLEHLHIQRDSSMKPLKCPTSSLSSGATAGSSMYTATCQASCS
Method: The cells were constructed by Wuxi New Drug Development Co., Ltd. Shanghai.
The compound was prepared with DMSO to a working concentration of 100µM or 10µM. 10 points of 4-fold dilution (maximum concentration of 1000nM or 100nM after dilution) was done with Bravo V11.
The compound to be tested was diluted 4 times with Bravo to obtain 10 concentrations and the initial concentration was 100µM by Bravo V11. The initial concentration was 100µM.

[1] = Pharmacokinetic study in rats (intravenous or gavage, plasma LC-MS/MS); assay type: in vivo; details: SD rats; for F: po 5 mg/kg versus iv 1 mg/kg; for AUC(0-t) / Cmax / Tmax / half-life: rat, plasma
Method: SD rats: male, 6-8 weeks old, weighing 200-300 g, purchased from SPF ( Beijing ) Biotechnology Co.,Ltd..
At each PK sampling point, 200 µL of whole blood was collected into EDTA-K2 anticoagulant blood tubes and centrifuged at 4°C for 30 min to obtain plasma. Whole blood samples were placed on wet ice before centrifugation. All collected plasma samples were stored on dry ice or frozen until analyzed.
Approximately1 mg of the compound of the present application was weighed and dissolved in DMSO, vortexed and sonicated to obtain a 1 mg/mL standard stock solution. The standard stock solution was diluted with 50% aqueous acetonitrile to obtain standard working solutions with concentrations of 5, 10, 20, 50, 100, 500, 1000, 5000 and 10000 ng/mL. QC working solutions with concentrations of 10, 20, 500 and 8000 ng/mL were prepared using the same dilution method. These QC samples were prepared on the day of analysis in the same way as the standard curve samples.5 µL of standard working solution with concentrations of (5, 10, 20, 50, 100, 500, 1000, 5000 and 10000 ng/mL) was added to 50 µL of blank SD rat plasma to obtain a total volume of 55 µL with concentrations of 0.5-1000 ng/mL (0.5, 1, 2, 5, 10, 50, 100, 500, and 1000 ng/mL) of standard curve samples. QC samples with concentrations of (1 ng/ml (low-1) and 2 ng/ml (low-2), 50 ng/ml (medium), 800 ng/ml (high)) were configured separately.
55 µL of standard samples, 55 µL of QC samples or 55 µL of unknown samples (50 µL of plasma samples added to 5 µL of 50% aqueous acetonitrile) were added to 200 µL of acetonitrile containing an internal standard (dexamethasone) to precipitate proteins. […] The supernatant was taken and diluted 3-fold with water, and 5 µL of the supernatant dilution was injected into the LC-MS/MS system for quantitative analysis under the following assay conditions:
Column: HALO 90A Phenly-Hexyl, 2µm 2.1×30mm.
Pharmacokinetic parameters were calculated by the […] of Phoenix TM Winnonlin® 8.3 software.

[2] = Human liver microsome stability test; assay type: in vitro ADME; details: pH 7.4; human liver microsomes 0.5 mg/mL, 1 µM compound, NADPH, 37 °C
Method: Preparation of compound working solutions: A high-concentration stock solution of the subject and control drug verapamil powder was prepared in DMSO and diluted to a working solution of 100 µM with DMSO before use, with a final concentration of 1 µM of the subject and verapamil.
Preparation of phosphate buffer salt (100 mM, pH 7.4): 7.098 g of disodium hydrogen phosphate was weighed and dissolved ultrasonically in 500 mL of purified water as solution A. 3.400 g of potassium dihydrogen phosphate was weighed and dissolved ultrasonically in 250 mL of purified water as solution B. Solution B was added to the inside of solution A to give a pH of 7.4.
Preparation of 10 mM NADPH: An appropriate amount of NADPH is now weighed before the experiment and a working solution of 10 mM concentration is prepared from phosphate solution.
Preparation of the incubation system: The incubation system was prepared according to the following table, and the incubation system was preheated in a water bath at 37 °C for 10 minutes before use.
Transfer 25 µL of NADPH or phosphate buffer salt to the above incubation system and add 2.5 µL of 100 µM subject or verapamil. For NADPH-added samples, double-parallel preparations were performed; for NADPH-negative samples, single-parallel preparations were performed.
30 µL of the suspension was taken at 0.5, 5, 15, 30, and 60 min, respectively. The reaction was terminated by adding 150 µL of acetonitrile containing the internal standard and vortexed for 10 min.
This was followed by centrifugation at 3220 g for 40 min for protein precipitation. 100 µL of supernatant was transferred to the injection plate and mixed with 100 µL of pure water for UPLC-MS/MS analysis.
All data calculations were performed by Microsoft Excel software. Peak areas were detected by extracted ion mapping. The in vitro half-life (t1/2) of the parent drug was assayed by fitting the natural logarithm of the percentage elimination of the parent drug linearly with time.
The in vitro half-life (t1/2) was calculated by slope: t1/2 = 0.693 / k
The in vitro clearance (in µL/min/mg) was calculated using the following formula: CLint =0.693/ t1/2 * (Incubation system volume (μL) / protein content (mg)) [formula]
Table 3 the experimental results of human liver microsome of the compounds provided in some examples of the present invention

EC50 (GLP-1 receptor): 0.22 nM
Structure (SMILES): O=C(O)c1ccc2nc(CC3CCC(c4cccc(OCc5ccc(Cl)c6cc(F)oc56)n4)CC3)n(C[C@@H]3CCO3)c2c1 (stereo partly drawn) [Compound 7, (5)-2-((4-(6-((4-chloro-2-fluorobenzofuran-7-yl)methoxy)pyridin-2-yl)cyclohexyl)methyl)-1-(oxetan-2-ylmethyl)-1H-benzo[d]imidazole-6-carboxylic acid]

Structure (SMILES): O=C(O)c1ccc2nc(C[C@H]3CC[C@H](c4cccc(OCc5ccc(Cl)c6cc(Cl)oc56)n4)CC3)n(C[C@@H]3CCO3)c2c1 [Compound 38B, 2-(((1r,4S)-4-(6-((2,4-dichlorobenzofuran-7-yl)methoxy)pyridin-2-yl)cyclohexyl)methyl)-1-(((S)-oxetan-2-yl)methyl)-1H-benzo[d]imidazole-6-carboxylic acid]
F [1]: 21.1%
AUC(0-t) ([1]; iv, 1 mg/kg): 3940 ng·h/mL
Cmax ([1]; iv, 1 mg/kg): 5280 ng/mL
Tmax ([1]; iv, 1 mg/kg): 4.98 min
half-life ([1]; iv, 1 mg/kg): 87 min
AUC(0-t) ([1]; po, 5 mg/kg): 4130 ng·h/mL
Cmax ([1]; po, 5 mg/kg): 1400 ng/mL
Tmax ([1]; po, 5 mg/kg): 70.2 min
half-life ([1]; po, 5 mg/kg): 157 min

half-life at 1 µM [2]: 112 min
Structure (SMILES): O=C(O)c1ccc2nc(CC3CC=C(c4cccc(OCc5ccc(Cl)c6cc(F)oc56)n4)CC3)n(C[C@@H]3CCO3)c2n1 (stereo partly drawn) [Compound 6, 2-((4-(6-((4-chloro-2-fluorobenzofuran-7-yl)methoxy)pyridin-2-yl)cyclohex-3-en-1-yl)methyl)-3-(((S)-oxetan-2-yl)methyl)-3H-imidazo[4,5-b]pyridine-5-carboxylic acid]

EC50 (GLP-1 receptor): 0.22 nM
Structure (SMILES): CCn1cncc1Cn1c(CC2CC=C(c3cccc(OCc4ccc(Cl)c5cc(F)oc45)n3)CC2)nc2ccc(C(=O)O)cc21 (stereo not drawn) [Compound 29, 2-((4-(6-((4-chloro-2-fluorobenzofuran-7-yl)methoxy)pyridin-2-yl)cyclohex-3-en-1-yl)methyl)-1-((1-ethyl-1H-imidazol-5-yl)methyl)-1H-benzo[d]imidazole-6-carboxylic acid hydrochloride]

EC50 (GLP-1 receptor): 0.22 nM
Structure (SMILES): O=C(O)c1ccc2nc(C[C@H]3CC=C(c4cccc(OCc5ccc(Cl)c6cc(F)oc56)n4)CC3)n(C[C@@H]3CCO3)c2c1 [Compound 36B, 2-(((R)-4-(6-((4-chloro-2-fluorobenzofuran-7-yl)methoxy)pyridin-2-yl)cyclohex-3-en-1-yl)methyl)-1-(((S)-oxetan-2-yl)methyl)-1H-benzo[d]imidazole-6-carboxylic acid]

half-life at 1 µM [2]: 111 min
EC50 (GLP-1 receptor): 0.26 nM
Structure (SMILES): O=C(O)c1ccc2nc(CC3CC=C(c4ncc(F)c(OCc5ccc(Cl)c6ccoc56)n4)CC3)n(C[C@@H]3CCO3)c2c1 (stereo partly drawn) [Compound 3, 2-((4-(4-((4-chlorobenzofuran-7-yl)methoxy)-5-fluoropyrimidin-2-yl)cyclohex-3-en-1-yl)methyl)-1-(((S)-oxetan-2-yl)methyl)-1H-benzo[d]imidazole-6-carboxylic acid]

half-life at 1 µM [2]: > 185 min
Structure (SMILES): O=C(O)c1ccc2nc(CC3CC=C(c4ncc(F)c(OCc5ccc(Cl)c6cc(F)oc56)n4)CC3)n(C[C@@H]3CCO3)c2n1 (stereo partly drawn) [Compound 5, 2-((4-(4-((4-chloro-2-fluorobenzofuran-7-yl)methoxy)-5-fluoropyrimidin-2-yl)cyclohex-3-en-1-yl)methyl)-3-(((S)-oxetan-2-yl)methyl)-3H-imidazo[4,5-b]pyridine-5-carboxylic acid]

half-life at 1 µM [2]: > 185 min
EC50 (GLP-1 receptor): 0.07 nM
Structure (SMILES): N#CCC1(Cn2c(CC3CC=C(c4cccc(OCc5ccc(Cl)c6cc(F)oc56)n4)CC3)nc3ccc(C(=O)O)cc32)CC1 (stereo not drawn) [Compound 28, 2-((4-(6-((4-chloro-2-fluorobenzofuran-7-yl)methoxy)pyridin-2-yl)cyclohex-3-en-1-yl)methyl)-1-((1-(cyanomethyl)cyclopropyl)methyl)-1H-benzo[d]imidazole-6-carboxylic acid]

F [1]: 38.8%
AUC(0-t) ([1]; male, iv, 1 mg/kg): 1250 ng·h/mL
Cmax ([1]; male, iv, 1 mg/kg): 1080 ng/mL
Tmax ([1]; male, iv, 1 mg/kg): 4.98 min
half-life ([1]; male, iv, 1 mg/kg): 154 min
AUC(0-t) ([1]; male, po, 5 mg/kg): 2440 ng·h/mL
Cmax ([1]; male, po, 5 mg/kg): 460 ng/mL
Tmax ([1]; male, po, 5 mg/kg): 240 min
half-life ([1]; male, po, 5 mg/kg): 317 min
Structure (SMILES): O=C(O)c1ccc2nc(CC3CC=C(c4cccc(OCc5ccc(Cl)c6cc(Cl)oc56)n4)CC3)n(C[C@@H]3CCO3)c2c1 (stereo partly drawn) [Compound 25, 2-((4-(6-((2,4-dichlorobenzofuran-7-yl)methoxy)pyridin-2-yl)cyclohex-3-en-1-yl)methyl)-1-(((S)-oxetan-2-yl)methyl)-1H-benzo[d]imidazole-6-carboxylic acid]

EC50 (GLP-1 receptor): 0.2 nM
Structure (SMILES): N#CCC1(Cn2c(C[C@H]3CC[C@H](c4cccc(OCc5ccc(Cl)c6cc(F)oc56)n4)CC3)nc3ccc(C(=O)O)cc32)CC1 [Compound 43, 2-(((1r,4r)-4-(6-((4-chloro-2-fluorobenzofuran-7-yl)methoxy)pyridin-2-yl)cyclohexyl)methyl)-1-((1-(cyanomethyl)cyclopropyl)methyl)-1H-benzo[d]imidazole-6-carboxylic acid]

half-life at 1 µM [2]: 166 min
EC50 (GLP-1 receptor): 0.19 nM
Structure (SMILES): O=C(O)c1ccc2nc(CC3CC=C(c4ncc(F)c(OCc5ccc(Cl)c6cc(F)oc56)n4)CC3)n(C[C@@H]3CCO3)c2c1 (stereo partly drawn) [Compound 31]

half-life at 1 µM [2]: 180 min
Structure (SMILES): O=C(O)c1cc2c(nc(CC3CC=C(c4cccc(OCc5ccc(Cl)c6cc(F)oc56)n4)CC3)n2C[C@@H]2CCO2)s1 (stereo partly drawn) [Compound 8, 2-((4-(6-((4-chloro-2-fluorobenzofuran-7-yl)methoxy)pyridin-2-yl)cyclohex-3-en-1-yl)methyl)-1-(((S)-oxetan-2-yl)methyl)-1H-thieno[2,3-d]imidazole-5-carboxylic acid]

EC50 (GLP-1 receptor): 0.15 nM
Structure (SMILES): O=C(O)c1cc(F)c2nc(C[C@H]3CC[C@H](c4cccc(OCc5ccc(Cl)c6cc(F)oc56)n4)CC3)n(C[C@@H]3CCO3)c2c1 [Compound 39, 2-(((1r,4S)-4-(6-((4-chloro-2-fluorobenzofuran-7-yl)methoxy)pyridin-2-yl)cyclohexyl)methyl)-4-fluoro-1-(((S)-oxetan-2-yl)methyl)-1H-benzo[d]imidazole-6-carboxylic acid]

EC50 (GLP-1 receptor): 0.2 nM
Structure (SMILES): O=C(O)c1ccc2nc(CC3CC=C(c4cccc(OCc5ccc(Cl)c6ccoc56)n4)CC3)n(C[C@@H]3CCO3)c2n1 (stereo partly drawn) [Compound 34, 2-((4-(6-((4-chlorobenzofuran-7-yl)methoxy)pyridin-2-yl)cyclohex-3-en-1-yl)methyl)-3-(((S)-oxetan-2-yl)methyl)-3H-imidazo[4,5-b]pyridine-5-carboxylic acid]
